{"source": "patent EP2292225A1", "about": "(priority 1997, dated 1998)", "key": {"[1]": {"tested_on": "Pig femoral arteries", "experiment": "Biological stenting of balloon traumatized femoral arteries (luminal area morphometry)", "format": "in vivo", "description": "Pig femoral arteries were traumatized as described in Example 7, and then treated with cytochalasin B. About 1.5 to about 2 ml of cytochalasin B at 0.1 µg/ml was infused into portions of the artery that had been separated from other portions by ligatures. The artery was then pressurized for 3 minutes and the fluid aspirated. Approximately 8 to about 30 lambda of the solution is retained in the interstitial space surrounding the cells in the tunica media. Ten femoral arteries (two arteries obtained from each of the 5 pigs that were treated according to the single dose protocol described in Example 7) were then evaluated histologically at 4 days or 3 weeks after cytochalasin B adminstration. The maximal luminal area of each artery was measured and calculated from digitized microscopic images by a BQ System IV computerized morphometric analysis system (R & M Biometrics, Inc., Nashville, TN). This experiment was repeated with 5 additional pigs (two arteries per pig; cytochalasin B dose = 0.1 µg/ml, applied for 3 minutes at 1 atm pressure; same time points). The data obtained from the two experiments were combined.\nThe luminal area of the traumatized and cytochalasin B-treated segments of the arteries were also compared to the luminal area of the normal, untreated region of the femoral artery proximal to the test area.\nA cytochalasin B dose response study was then conducted on 10 pigs, following the experimental protocol described in Example 7. Briefly, both femoral arteries in each of 2 pigs were treated with one of the following doses of cytochalasin B: 0.0 µg/ml (i.e., PBS negative control); 0.01 µg/ml; 0.10 µg/ml; 1.0 µg/ml; and 10.0 µg/ml as described above. The agent was delivered by intraluminal catheter at 1 atm pressure for 3 minutes, and the arteries were evaluated 3 weeks later by the morphometric analysis system described above. The ratio of treated artery luminal area to proximal normal artery luminal area was determined as a percent change in treated vs. normal area, or the artery lumen size (diameter or cross sectional area) of treated arteries relative to traumatized but untreated arteries.\nBalloon traumatized swine femoral arteries from control and treated (0.1 µg/ml cytochalasin B) were evaluated at 1, 4, 7, 14, or 21 days after intervention. […] A two way analysis of variance indicated a statistically significant difference (p<.05) in the artery lumen areas over three weeks between the cytochalasin B treated and diluent control groups."}, "[2]": {"experiment": "Chronic (seven days) intravenous toxicity study", "format": "in vivo, Sprauge-Dawley rats", "conditions": "10080 min", "description": "To determine the toxicity of chronic cytochalasin B administration, cytochalasin B was administered intravenously to Sprauge-Dawley rats for seven days (Table 12). Data regarding food consumption, body weights, hematology parameters, clinical chemistry parameters, coagulation profiles, organ weights, clinical observations, gross necropsy findings and histopathology were collected. […]"}, "[3]": {"tested_on": "balloon traumatized rabbit carotid artery", "format": "in vivo"}, "[4]": {"tested_on": "Vascular smooth muscle cells (BO54)", "experiment": "Scratch assay of smooth muscle cell migration", "format": "cell-based, baboon", "design": "key: - = no toxicity; +1 = minimal; +2 = mild; +3 = moderate; +4 = marked toxicity", "conditions": "Day 1/3/6/8/10 = r6/r8/r10/r12/r14", "description": "(§1) Scratch assays to determine the extent of smooth muscle cell migration inhibition by cytochalasin B were performed in accordance with the following protocol: • Vascular smooth muscle cells (BO54) were derived from explants of baboon aortic smooth muscle, as described in Example 10. The cells were grown in flat bottom, six well tissue culture plates, which hold about 5 ml of medium. The vascular smooth muscle cells were plated at 200,000 cells/well and placed at 37°C in a humidified 5% CO2 incubator for 18 hours. The wells were then scratched with a sterile portion of a single edge razor blade that was held by clamp or pliers and was brought aseptically into contact with the bottom of the well at a 90° angle. The cells from a small area along the scratch were removed by a sterile cotton tipped applicator while the blade was in contact with the bottom of the well. After incubation, the presence of cells in the \"scratched\" area is indicative of cell migration across the scratch line.\n(§2) Briefly, a stock solution of cytochalasin B (Sigma Chemical Co.) in dimethyl sulfoxide (DMSO) at 1 mg/ml was prepared. Test dilutions of cytochalasin B or control medium were added. Each experiment included two sets of plates: A set: Test agent exposure for 1, 3, 6, 8 and 10 days only; and B set: Test agent exposure for 1, 3, 6, 8 and 10 days, followed by a seven day recovery time with control medium. Both sets of plates were fixed (10% formalin in PBS) and stained (0.02% crystal violet) at the end of the timed exposures. Test concentrations for cytochalasin B were 1, 0.1 and 0.01 µg/ml, and a negative medium control was included. Fresh medium and drug were supplied 3 times per week.\n(§3) In this Table, \"M\" indicates Migration Grade, wherein - = no migration; +1 = minimal; +2 = mild; +3 = moderate; and +4 = marked (maximum density; limit of cell contact inhibition) migration of vascular smooth muscle cells into the cleared area adjacent to the scratch. In this Table, \"T\" denotes a morphological Toxicity Grade, wherein - = no toxicity; +1 = minimal; +2 = mild; +3 = moderate; and +4 = marked toxicity. The migration results are expressed as \"Grade in the Cleared Area of the Well / Grade in an Undisturbed Region of the Well.\" The toxicity values represent a grade for all cells in each well."}, "[5]": {"tested_on": "Vascular smooth muscle cells (BO54)", "experiment": "Scratch assay of smooth muscle cell migration", "format": "cell-based, baboon", "design": "key: - = no migration; +1 = minimal; +2 = mild; +3 = moderate; +4 = marked (maximum density; limit of cell contact inhibition) migration", "conditions": "for Migration Grade in an Undisturbed Region of the Well / Migration Grade in the Cleared Area of the Well: Day 1/3/6/8/10 = r5/r7/r9/r11/r13; for morphological Toxicity Grade: Day 1/3/6/8/10 = r6/r8/r10/r12/r14, listed as CY[…]", "description": "as §1, §2, §3"}, "[6]": {"conditions": "Group 7a: 10% wt/wt, three weeks"}, "[7]": {"conditions": "7-day Recovery Post Exposure, 1.0 µg/mL"}}, "note": "“Also recorded” adds a separate entry of the source. Where two headings read alike, the source gives them in different places."}
{"smiles": "C=C1[C@@H](C)[C@H]2[C@H](Cc3ccccc3)NC(=O)[C@]23OC(=O)/C=C/[C@H](O)CCC[C@@H](C)C/C=C/[C@H]3[C@@H]1O", "note": "[cytochalasin B]", "values": [{"measurement": "percent change in treated vs. normal luminal area", "setting": "[1]; 0.1 µg/ml, 1 atm for 3 minutes, 3 weeks later", "result": "~140", "unit": "%"}, {"measurement": "artery lumen area over three weeks", "setting": "[1]; 0.1 µg/ml, 1, 4, 7, 14, or 21 days after intervention", "result": "sustained dilation which changed very little between days 7 and 21"}, {"measurement": "luminal area compared to other test agents or controls", "setting": "[1]; 0.1 µg/ml, 4 day and 3 week post-treatment", "result": "larger luminal area"}, {"measurement": "toxicity", "setting": "[1]; at 10 µg/ml", "result": "no evidence of toxicity"}, {"measurement": "threshold level of the therapeutic effect", "setting": "[1]; no effect below this dose", "result": 0.1, "unit": "µg/mL"}, {"measurement": "lumen area in the test region compared to the normal control segment of the same artery", "setting": "[1]; pig, in vivo", "result": "approximately two times as large"}, {"measurement": "dose without any indication of adverse effects or toxicity", "setting": "[2]", "result": "up to 600 µg/kg/day"}, {"measurement": "intimal proliferation", "setting": "[3]; Group 1: 20 mg in 1 g bovine collagen gel, bovine collagen mesh wrap, 1 week", "result": "no intimal or adventital proliferation"}, {"measurement": "intimal proliferation", "setting": "[3]; Group 1: 20 mg in 1 g bovine collagen gel, bovine collagen mesh wrap, 2 weeks", "result": "minimal intimal and adventital proliferation"}, {"measurement": "intimal proliferation", "setting": "[3]; Group 1: 20 mg in 1 g bovine collagen gel, bovine collagen mesh wrap, three weeks", "result": "no intimal proliferation"}, {"measurement": "intimal proliferation", "setting": "[3]; Group 2: 30% wt/wt in silicone wrap, 3 weeks", "result": "moderate, irregular intimal proliferation"}, {"measurement": "intimal proliferation", "setting": "[3]; Group 2: 30% wt/wt in silicone wrap, one week", "result": "no significant intimal or adventitial proliferation"}, {"measurement": "intimal proliferation", "setting": "[3]; Group 2: 30% wt/wt in silicone wrap, two weeks", "result": "complete inhibition of intimal proliferation"}, {"measurement": "intimal proliferation", "setting": "[3]; Group 3: 8 mg in 100 mg pluronic gel, bovine collagen mesh wrap, one week", "result": "mild intimal proliferation"}, {"measurement": "intimal proliferation", "setting": "[3]; Group 3: 8 mg in 100 mg pluronic gel, bovine collagen mesh wrap, three weeks", "result": "moderate amount of intimal hyperplasia"}, {"measurement": "intimal proliferation", "setting": "[3]; Group 3: 8 mg in 100 mg pluronic gel, bovine collagen mesh wrap, two weeks", "result": "mild, irregular intimal proliferation"}, {"measurement": "re-endothelization", "setting": "[3]; Group 3: 8 mg in 100 mg pluronic gel, one week", "result": "approximately 30%"}, {"measurement": "intimal proliferation", "setting": "[3]; Group 4: 100 mg (10% wt/wt) in 1 g silicone wrap, one week", "result": "no intimal proliferation"}, {"measurement": "intimal proliferation", "setting": "[3]; Group 4: 100 mg (10% wt/wt) in 1 g silicone wrap, three weeks", "result": "minimal to no intimal proliferation"}, {"measurement": "intimal proliferation", "setting": "[3]; Group 4: 100 mg (10% wt/wt) in 1 g silicone wrap, two weeks", "result": "minimal intimal proliferation"}, {"measurement": "re-endothelization", "setting": "[3]; Group 4: 10% wt/wt silicone wrap, three weeks", "result": "< 10", "unit": "%"}, {"measurement": "intimal proliferation", "setting": "[3]; Group 7a: 10% wt/wt, one and two weeks", "result": "no intimal proliferation for 2 weeks"}, {"measurement": "intimal proliferation", "setting": "[3]; [6]", "result": "mild irregular intimal proliferation"}, {"measurement": "re-endothelized", "setting": "[3]; [6]", "result": 70, "unit": "%"}, {"measurement": "intimal proliferation", "setting": "[3]; Group 8a: 10% wrap for 2 weeks, removed, evaluated 2 weeks later, animals 1254, 1255, 1256", "result": "none to mild; also recorded: mild to moderate intimal proliferation"}, {"measurement": "intimal proliferation", "setting": "[3]; Group 10: 10 mg in 1 g silicone wrap (1% wt/wt) for 2 weeks, removed, 2 weeks later, animal 1304", "result": "moderate initmal proliferation"}, {"measurement": "re-endothelization", "setting": "[3]; Group 10: 1% wrap for 2 weeks, removed, 2 weeks later, animal 1304", "result": 100, "unit": "%"}, {"measurement": "re-endothelized", "setting": "[3]; Group 11: 1% wrap for 2 weeks, removed, four weeks later, animal 1308", "result": 100, "unit": "%"}, {"measurement": "intimal proliferation", "setting": "[3]; Group 11: 1% wrap for 2 weeks, removed, four weeks later, animals 1307, 1308, 1309", "result": "moderate initmal proliferation; also recorded: moderate intimal proliferation; also recorded: marked intimal proliferation"}, {"measurement": "qualitative difference between test and control animals", "setting": "[3]; Groups 10 and 11: 1% wt/wt silicone wrap for 2 weeks, removed, 2 or 4 weeks later", "result": "No significant difference"}, {"measurement": "morphological Toxicity Grade", "setting": "[4]; 7-day Recovery Post Exposure, 0.01 µg/mL", "result": "-"}, {"measurement": "morphological Toxicity Grade", "setting": "[4]; 7-day Recovery Post Exposure, 0.1 µg/mL", "result": "-"}, {"measurement": "morphological Toxicity Grade", "setting": "[4]; Continuous Exposure, 0.1 µg/mL, listed as CY[…]", "result": "-"}, {"measurement": "morphological Toxicity Grade", "setting": "[4]; Continuous Exposure, 1.0 µg/mL, listed as CY[…]", "result": "+4"}, {"measurement": "Migration Grade in an Undisturbed Region of the Well", "setting": "[5]; [7]", "result": "+3"}, {"measurement": "Migration Grade in the Cleared Area of the Well", "setting": "[5]; [7]", "result": "+2"}, {"measurement": "morphological Toxicity Grade", "setting": "[5]; Continuous Exposure, 0.1 µg/mL", "result": "+1"}, {"measurement": "Migration Grade in an Undisturbed Region of the Well", "setting": "[5]; Continuous Exposure, 1.0 µg/mL", "result": "+2"}, {"measurement": "Migration Grade in the Cleared Area of the Well", "setting": "[5]; Continuous Exposure, 1.0 µg/mL", "result": "-"}, {"measurement": "morphological Toxicity Grade", "setting": "[5]; Continuous Exposure, 1.0 µg/mL", "result": "+3"}]}
